Measurements from the supplement of paper PMC13207355.
Counter-ions that a name gives are not always drawn.

Key:
Conditions in all cases: exposure time: 72 h
E34 [1] = patient-derived glioblastoma stem cells of proneural subtype; experiment: phenotypic distance (Euclidean, principal components) from DMSO controls (arbitrary units); higher = stronger morphological change
E21 [2] = patient-derived glioblastoma stem cells of mesenchymal subtype; experiment: as above
FT3469 [3] = normal neural stem cell line; experiment: as above
E57 [4] = patient-derived glioblastoma stem cells of mesenchymal subtype; experiment: as above
E31 [5] = patient-derived glioblastoma stem cells of proneural subtype; experiment: as above
E13 [6] = patient-derived glioblastoma stem cells of classical subtype; experiment: as above
E28 [7] = patient-derived glioblastoma stem cells of classical subtype; experiment: as above
E34 [8] = experiment: surviving fraction (nuclei count normalised to DMSO); higher = more cells surviving (less toxic)
E21 [9] = experiment: as above
FT3469 [10] = experiment: as above
E57 [11] = experiment: as above
E31 [12] = experiment: as above
E13 [13] = experiment: as above
E28 [14] = experiment: as above
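Throughout, for phenotypic distance (Euclidean, principal components) from DMSO controls: cell Painting imaging in 384-well plates, CellProfiler features reduced to at least 20 principal components, Euclidean distance versus same-plate DMSO vehicle wells (0.1% v/v), median over six images per well.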
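Throughout, for surviving fraction (nuclei count normalised to DMSO): nuclei counted by high-content imaging of Hoechst-stained cells in laminin-coated 384-well plates, relative to 0.1% DMSO vehicle wells, with staurosporine as cell-death control.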

CNCCc1ccccn1 [Betahistine mesylate]
Conditions | phenotypic distance | surviving fraction
E13 [6], 4.1 nM | 0.901 | –
E13 [6], 12.3 nM | 0.868 | –
E13 [6], 37 nM | 1.14 | –
E13 [6], 111.1 nM | 0.834 | –
E13 [6], 333.3 nM | 0.663 | –
E13 [6], 1000 nM | 0.868 | –
E13 [6], 3000 nM | 0.634 | –
E13 [13], 4.1 nM | – | 0.978
E13 [13], 12.3 nM | – | 0.933
E13 [13], 37 nM | – | 1.01
E13 [13], 111.1 nM | – | 1.13
E13 [13], 333.3 nM | – | 0.991
E13 [13], 1000 nM | – | 1.05
E13 [13], 3000 nM | – | 1.08
E21 [2], 4.1 nM | 1.28 | –
E21 [2], 12.3 nM | 1.7 | –
E21 [2], 37 nM | 0.97 | –
E21 [2], 111.1 nM | 1.14 | –
E21 [2], 333.3 nM | 1.32 | –
E21 [2], 1000 nM | 1.57 | –
E21 [2], 3000 nM | 1.61 | –
E21 [9], 4.1 nM | – | 1.01
E21 [9], 12.3 nM | – | 1.06
E21 [9], 37 nM | – | 0.973
E21 [9], 111.1 nM | – | 0.957
E21 [9], 333.3 nM | – | 1.08
E21 [9], 1000 nM | – | 1.01
E21 [9], 3000 nM | – | 1.17
E28 [7], 4.1 nM | 0.708 | –
E28 [7], 12.3 nM | 1.01 | –
E28 [7], 37 nM | 0.524 | –
E28 [7], 111.1 nM | 0.891 | –
E28 [7], 333.3 nM | 0.512 | –
E28 [7], 1000 nM | 0.607 | –
E28 [7], 3000 nM | 0.451 | –
E28 [14], 4.1 nM | – | 0.99
E28 [14], 12.3 nM | – | 1.1
E28 [14], 37 nM | – | 1.08
E28 [14], 111.1 nM | – | 0.858
E28 [14], 333.3 nM | – | 1.04
E28 [14], 1000 nM | – | 1.1
E28 [14], 3000 nM | – | 1.2
E31 [5], 4.1 nM | 0.624 | –
E31 [5], 12.3 nM | 0.892 | –
E31 [5], 37 nM | 0.655 | –
E31 [5], 111.1 nM | 0.749 | –
E31 [5], 333.3 nM | 0.468 | –
E31 [5], 1000 nM | 0.554 | –
E31 [5], 3000 nM | 1.08 | –
E31 [12], 4.1 nM | – | 0.967
E31 [12], 12.3 nM | – | 1.11
E31 [12], 37 nM | – | 0.864
E31 [12], 111.1 nM | – | 1.01
E31 [12], 333.3 nM | – | 0.976
E31 [12], 1000 nM | – | 1.09
E31 [12], 3000 nM | – | 1.1
E34 [1], 4.1 nM | 0.696 | –
E34 [1], 12.3 nM | 0.75 | –
E34 [1], 37 nM | 0.843 | –
E34 [1], 111.1 nM | 1.03 | –
E34 [1], 333.3 nM | 0.558 | –
E34 [1], 1000 nM | 0.851 | –
E34 [1], 3000 nM | 1.25 | –
E34 [8], 4.1 nM | – | 0.797
E34 [8], 12.3 nM | – | 0.969
E34 [8], 37 nM | – | 0.928
E34 [8], 111.1 nM | – | 1.16
E34 [8], 333.3 nM | – | 1.11
E34 [8], 1000 nM | – | 1.1
E34 [8], 3000 nM | – | 0.927
E57 [4], 4.1 nM | 4.51 | –
E57 [4], 12.3 nM | 1.49 | –
E57 [4], 37 nM | 1.15 | –
E57 [4], 111.1 nM | 1.23 | –
E57 [4], 333.3 nM | 0.721 | –
E57 [4], 1000 nM | 0.773 | –
E57 [4], 3000 nM | 0.773 | –
E57 [11], 4.1 nM | – | 0.99
E57 [11], 12.3 nM | – | 0.95
E57 [11], 37 nM | – | 0.987
E57 [11], 111.1 nM | – | 1.04
E57 [11], 333.3 nM | – | 1.01
E57 [11], 1000 nM | – | 0.983
E57 [11], 3000 nM | – | 0.999
FT3469 [3], 4.1 nM | 0.827 | –
FT3469 [3], 12.3 nM | 0.751 | –
FT3469 [3], 37 nM | 0.948 | –
FT3469 [3], 111.1 nM | 0.634 | –
FT3469 [3], 333.3 nM | 1.15 | –
FT3469 [3], 1000 nM | 0.929 | –
FT3469 [3], 3000 nM | 0.86 | –
FT3469 [10], 4.1 nM | – | 0.941
FT3469 [10], 12.3 nM | – | 1.08
FT3469 [10], 37 nM | – | 1.16
FT3469 [10], 111.1 nM | – | 0.935
FT3469 [10], 333.3 nM | – | 1.23
FT3469 [10], 1000 nM | – | 1.18
FT3469 [10], 3000 nM | – | 1.19
